Results reported in patent publication US20240174690A1, “ANNULATED 2-AMINO-3-CYANO THIOPHENES AND DERIVATIVES FOR THE TREATMENT OF CANCER” (BOEHRINGER INGELHEIM INTERNATIONAL GMBH, priority 2021, published 2024).
Like-named read-outs stand apart in the source and are kept apart here.

What was measured:
MKN1 cells = experiment: MKN1 CTG proliferation assay (120 h) (gastric cancer, wt amplified); type: cell-based; conditions: Homo sapiens
Outline: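 MKN1 gastric cancer cells (200–500 per well, RPMI + 10% FCS) given a logarithmic compound dose series and incubated 120 h. Viability by CellTiter-Glo luminescence as percent of DMSO controls. IC50 by four-parameter non-linear regression.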

NCI-H2122 cells = experiment: NCI-H2122 CTG proliferation assay (120 h) (NSCLC, G12C); type: cell-based; conditions: Homo sapiens
Outline: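 NCI-H2122 cells (KRAS G12C NSCLC), 200 per well in RPMI with 10% FCS, were dosed with compound on day 1 and incubated 120 h at 37 °C. Viability was read by CellTiter-Glo luminescence as percent of DMSO control, and IC50 was fitted with a four-parameter model.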

GP2D cells = experiment: GP2D proliferation assay (120 h) (colorectal cancer, G12D); type: cell-based
Method: GP2D Proliferation Assay (120 h) (Colorectal Cancer, G12D)
GP2D cells (ATCC No. CRL-5807) are dispensed into white 384-well plates, flat and white bottom (Perkin Elmer, 6007680) at a density of 500 cells per well in 40 μl DMEM (Sigma, D6429)+1×GlutaMAX (Gibco, 35050038)+10% FCS (fetal calf serum). […] Compounds (10 mM stock in DMSO) are added at logarithmic dose series using the HP Digital Dispenser D300 (Tecan), including DMSO controls and normalizing for added DMSO. For the TO time point measurement, untreated cells are analyzed at the time of compound addition. Plates are incubated for 120 h, and cell viability is measured using CellTiter-Glo luminescent cell viability reagent (Promega product code G7570). Viability (stated as percent of control) is defined as relative luminescence units RLU of each well divided by the RLU of cells in DMSO controls. IC50 values are determined from viability measurements by non-linear regression using a four parameter model.

CYP3A4 = CYP3A4 (Homo sapiens (Human), UniProt P08684); experiment: Mechanism based inhibition of CYP3A4 assay (MBI 3A4); type: in vitro ADME; conditions: hydroxy-midazolam formation after 30 min vs 0 min preincubation, 25 uM, human liver microsomes
Chain of CYP3A4 (P08684 whole entry): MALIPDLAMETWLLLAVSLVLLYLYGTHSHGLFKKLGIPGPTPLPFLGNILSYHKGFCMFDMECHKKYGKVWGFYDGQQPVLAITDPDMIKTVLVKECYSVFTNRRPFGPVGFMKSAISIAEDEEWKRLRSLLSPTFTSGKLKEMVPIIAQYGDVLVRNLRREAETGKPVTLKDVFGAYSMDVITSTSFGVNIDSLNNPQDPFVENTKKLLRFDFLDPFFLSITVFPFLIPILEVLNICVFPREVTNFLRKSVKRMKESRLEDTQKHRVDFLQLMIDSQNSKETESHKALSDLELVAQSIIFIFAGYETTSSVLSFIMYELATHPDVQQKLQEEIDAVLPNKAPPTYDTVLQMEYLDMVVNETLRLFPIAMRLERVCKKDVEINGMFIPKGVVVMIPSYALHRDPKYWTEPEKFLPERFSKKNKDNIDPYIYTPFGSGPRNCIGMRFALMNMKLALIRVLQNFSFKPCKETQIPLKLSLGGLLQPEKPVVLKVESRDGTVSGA
Outline: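 Human CYP3A4 activity after 30 min vs 0 min preincubation with test compound; incubate then diluted 1:10 and midazolam added for a 15 min main incubation. Quenched with acetonitrile; hydroxy-midazolam quantified by LC/MS-MS and expressed as % of the 0 min preincubation formation.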

[1] = Caco-2 assay (permeability PappAB, PappBA, efflux ratio); type: in vitro ADME; conditions: human, Caco-2, 10 μM test compound, pH 7.4; for efflux ratio at 90 min, 10 μM: efflux ratio PappBA/PappAB, read-out: Caco ER; for Papp A→B at 90 min, 10 μM: apical to basolateral
Outline: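 Confluent Caco-2 monolayers on filter supports, 0.25% BSA in both donor and receiver buffer; transport measured a-b and b-a. After 25-30 min preincubation at 37 °C, samples at 0, 30, 60, 90 min quantified by HPLC/MS/MS. Papp from receiver amount per time, filter area and initial donor concentration; efflux ratio = PappBA/PappAB.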

[2] = MKN-1, assay 1, CTG 120 h, read-out: MKN1 (assay 1) IC50
[3] = MKN-1, assay 3, CTG 120 h, read-out: MKN1 (assay 3) IC50
[4] = MKN-1, assay 2, CTG 120 h, read-out: MKN1 (assay 2) IC50

Row | SMILES | IC50 (MKN1 cells; [2]) [nM] | IC50 (MKN1 cells; [3]) [nM] | IC50 (NCI-H2122 cells) [nM] | IC50 (GP2D cells) [nM] | MBI 3A4 (CYP3A4) [%] | efflux ratio at 90 min, 10 μM [1] | IC50 (MKN1 cells; [4]) [nM] | Papp A→B at 90 min, 10 μM [1] [×10⁻⁶ cm/s]
1 | C[C@H](Oc1cc(-n2ccc(-c3cnccn3)n2)nc(-c2noc3c2CCC[C@@]32CCCc3sc(N)c(C#N)c32)n1)[C@@H]1CCCN1C [II-130] | 216 | 297 | 221 | 233 | 67 | 1.4 | – | –
2 | C[C@H](Oc1cc(-c2cccc(C(N)=O)c2)nc(-c2noc3c2CCC[C@@]32CCCc3sc(N)c(C#N)c32)n1)[C@@H]1CCCN1C [II-133] | – | 391 | 180 | 301 | – | – | – | –
3 | C[C@H](Oc1cc(N2CCN(C)C3(CC3)C2)nc(-c2noc3c2CCC[C@@]32CCCc3sc(N)c(C#N)c32)n1)[C@@H]1C[C@@H](F)CN1C [II-149] | – | – | 2550 | 8 | 42 | 1.2 | 467 | –
4 | C[C@H](Oc1cc(N2CCNC3(COC3)C2)nc(-c2noc3c2CCC[C@@]32CCCc3sc(N)c(C#N)c32)n1)[C@@H]1C[C@@H](F)CN1C [II-150] | – | – | 2510 | 1 | 49 | 11.6 | 32 | 2.5

Continued, values first:

Row | IC50 (MKN1 cells; [2]) [nM] | IC50 (MKN1 cells; [3]) [nM] | IC50 (NCI-H2122 cells) [nM] | IC50 (GP2D cells) [nM] | MBI 3A4 (CYP3A4) [%] | efflux ratio at 90 min, 10 μM [1] | IC50 (MKN1 cells; [4]) [nM] | Papp A→B at 90 min, 10 μM [1] [×10⁻⁶ cm/s] | SMILES
5 | – | 633 | 929 | 1 | – | 2.9 | 284 | – | C[C@H](Oc1nc(-c2noc3c2CCC[C@@]32CCCc3sc(N)c(C#N)c32)nc(N2CCNC3(CC3)C2)c1F)[C@@H]1C[C@@H](F)CN1C [II-155]
6 | – | 411 | 3320 | 30 | 84 | 57.6 | – | 0.3 | C[C@H](Oc1cc(N2CCN[C@@H](C)C2)nc(-c2noc3c2CCC[C@@]32CCCc3sc(N)c(C#N)c32)n1)[C@@H]1CCCN1C [II-162]
7 | – | 1070 | 4580 | 23 | – | 138 | – | 0.1 | C[C@H](Oc1cc(C2=CCNCC2)nc(-c2noc3c2CCC[C@@]32CCCc3sc(N)c(C#N)c32)n1)[C@@H]1CCCN1C [II-164]
8 | – | – | 1790 | 1 | – | 2.5 | 427 | – | C[C@H](Oc1cc(N2CCNC3(CC3)C2)nc(-c2noc3c2CCC[C@@]32CCCc3sc(N)c(C#N)c32)n1)[C@@H]1C[C@@H](F)CN1C [II-165]
9 | – | 176 | 1770 | 12 | – | 39.5 | – | 1 | C[C@H](Oc1cc(-n2cc3c(n2)CNC3)nc(-c2noc3c2CCC[C@@]32CCCc3sc(N)c(C#N)c32)n1)[C@@H]1CCCN1C [II-168]
10 | 25 | 9 | – | 31 | 49 | 2.5 | 26 | 10 | C[C@H](Oc1cc(-n2ccc(C(=O)N[C@@H]3CCOC3)n2)nc(-c2noc3c2CCC[C@@]32CCCc3sc(N)c(C#N)c32)n1)[C@@H]1CCCN1C [II-192]
